Results as given in patent publication US10723726B2, “Solid forms of (Z)-4-(5-((3-benzyl-4-oxo-2-thioxothiazolidin-5-ylidene)methyl)furan-2-yl)benzoic acid” (GB006, INC., priority 2015, dated 2020).
Counter-ions that a name gives are not always drawn.

Tests used:
in vivo = conditions: male, beagle
Protocol: The PO (2 mg/kg) dose solution of micronized LA1 was prepared in 0.1% Tween-80 0.5% (w/v) and methyl cellulose in water.
The objective of the study was to investigate the preclinical pharmacokinetic profile of LA1 (micronized powder) in Beagle dog. To delineate the plasma concentration vs. time curve and characterize the relevant pharmacokinetic parameters to generate data on the PK properties viz., bioavailability, half-life (b1/2), volume of distribution, Cmax, Tmax, AUC and elimination rate constant of LA1 in Beagle dog.
LA1 was a coarse material which was micronized using laboratory scale ball mill. […] The micronized LA1 was recovered, weighed and stored in glass container at room temperature. For intravenous drug administration, LA1 excipient compatibility assay for dosing in dogs were carried out.
In brief, a known amount of LA1 was loaded to a cylindrical capped container made of stainless steel followed by addition of stainless steel balls. The ball mills were rotated on their axis for total of 60 minutes (6 cycles X 10 minutes). The micronized LA1 was recovered, weighed and stored in glass bottle at room temperature.
Test system: Healthy Beagle dog weighing 10-12 kg (age 10 months), males were used for the study. Crossover design was adopted for the experiments wherein 02 dogs were used in the study for oral and intravenous administration. Both the animals were housed stainless steel cage provided with a hopper to hold pellet feed and a separate water hopper. Temperature and humidity was maintained at 22±3° C. and 40-70%, respectively. The illumination was controlled to give a sequence of 12 h light and 12 h dark cycle. All the animals were adapted to the experimental conditions for at least 5 days prior to dosing. All animals were provided with Pedigree™ standard pellet feed, except for 10 to 12 h before treatment and 4 h after the drug administration. Water was provided ad libidum.
Formulation and drug administration: Exactly 90 mg of the test item LA1 (micronized powder) was weighed and transferred to a mortar and briefly triturated with pestle. Small volume of vehicle [0.5% (w/v) Carboxy methyl cellulose with 0.1% Tween-80] in water was then added slowly with continuous trituration until a uniform suspension was obtained. The content was then transferred into the measuring cylinder. The mortar was rinsed till the complete transfer of test item into the measuring cylinder was ensured. The final volume was then made up to 225 mL with vehicle to get a uniform suspension with desired concentration of 0.4 mg/mL. Dosing formulations were given by oral gavage at a dose volume not exceeding 5 mL/kg.
Intravenous drug formulation: Hemolysis assay using dog whole blood was employed to assess the damage of red blood cells for selection of excipient for intravenous dosing. […] Exactly 22.5 mg of the test item (micronized powder) was weighed into a graduated tube. 2.25 mL of DMSO was added drop wise and mixed by vortex. Then, 40.50 mL of Polyethylene glycol 400 (PEG-400) was added in two to three fragments and vortex intermittently. Then 2.25 mL Ethanol was added drop wise and vortex to get clear solution. The formulation was subjected to ultra-sonication for 5 minutes.
Sample collection: Serial method was used for blood sampling. Blood samples were collected as mentioned in the study design section (7). The blood sample (−1.5 mL) was collected from saphenous vein into labeled tubes, containing 2% w/v K2EDTA solution, as an anticoagulant.

[1] = system: murine melanoma B16-F10 tumors; assay: Murine melanoma B16F10 allograft efficacy (Example 20); type: in vivo, C57BL/6 mice

Row | SMILES | Dog Cl (in vivo) | Dog F % (absolute oral bioavailability) (in vivo) | AUC (in vivo; dog, po, 2 mg/kg) | Tmax (in vivo; dog, po, 2 mg/kg) | AUC0-t (in vivo; dog, po, 2 mg/kg, AUC0-12) | Cmax (in vivo; dog, po, 2 mg/kg, Cmax (peak concentration)) | half-life (in vivo; dog, po, 2 mg/kg, t1/2 (hr), oral half-life) | growth inhibition of B16-F10 tumors as compared to vehicle control ([1]; 3-100 mg/kg orally) | tumor volume ([1]; 3-100 mg/kg, FIG. 24)
1 | O=C(O)c1ccc(-c2ccc(/C=C3\SC(=S)N(Cc4ccccc4)C3=O)o2)cc1 [LA1, (Z)-4-(5-((3-benzyl-4-oxo-2-thioxothiazolidin-5-ylidene)methyl)furan-2-yl)benzoic acid] | 2.1 mL/min/kg | 50% | 6.1 µM·h | 4 h | 2570 ng·h/mL | 685 ng/mL | ~2 h | – | –
2 | O=C(O)c1ccc(-c2ccc(/C=C3\SC(=S)N(Cc4ccccc4)C3=O)o2)cc1 [LA1 choline salt] | – | – | – | – | – | – | – | 43-68% | decreased tumor volume in a dose dependent manner
